According to PubChem BioAssay AID248 (DTP/NCI, 2004):
Several values for one entry are separate records, joined by “and”; a condition that tells them apart may be missing. Equal entries are not always repeated. Inconclusive results and toxic doses are left out. Rule as the data show it: active = T/C of 150% or more; inactive = T/C below 125%.

Tested on: L1210 leukemia ip in BDF1 mice, survival T/C
Test: NCI In Vivo Anticancer Drug Screen. Data for tumor model L1210 Leukemia (intraperitoneal) in B6D2F1 (BDF1) mice
Conditions: endpoint: mean survival time, higher = longer survival
Outline: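 Read-out is survival time, reported as the treated-group measurement over the vehicle-control measurement.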

[1] = dose: 100.0 mg/kg/injection, schedule: Q04DX002 (ip), vehicle: saline with Tween-80
[2] = dose: 200.0 mg/kg/injection, schedule: Q04DX002 (ip), vehicle: saline with Tween-80
[3] = dose: 50.0 mg/kg/injection, schedule: Q01DX009 (ip), vehicle: saline with Tween-80
[4] = dose: 100.0 mg/kg/injection, schedule: Q01DX009 (ip), vehicle: saline with Tween-80
[5] = dose: 100.0 mg/kg/injection, schedule: Q04DX003 (ip), vehicle: saline with Tween-80
[6] = dose: 200.0 mg/kg/injection, schedule: Q01DX009 (ip), vehicle: saline with Tween-80
[7] = dose: 200.0 mg/kg/injection, schedule: Q04DX003 (ip), vehicle: saline with Tween-80
[8] = dose: 400.0 mg/kg/injection, schedule: Q01DX009 (ip), vehicle: saline with Tween-80
[9] = dose: 100.0 mg/kg/injection, schedule: Q01DX009 (ip), vehicle: Klucel (hydroxypropylcellulose) (HPC)
[10] = dose: 200.0 mg/kg/injection, schedule: Q01DX009 (ip), vehicle: Klucel (hydroxypropylcellulose) (HPC)
[11] = dose: 400.0 mg/kg/injection, schedule: Q01DX009 (ip), vehicle: Klucel (hydroxypropylcellulose) (HPC)
[12] = dose: 100.0 mg/kg/injection, schedule: Q04DX003 (ip), vehicle: acetone
[13] = dose: 200.0 mg/kg/injection, schedule: Q04DX003 (ip), vehicle: acetone
[14] = dose: 400.0 mg/kg/injection, schedule: Q04DX002 (ip), vehicle: saline with Tween-80
[15] = dose: 100.0 mg/kg/injection, schedule: Q01DX001 (ip), vehicle: Klucel (hydroxypropylcellulose) (HPC)
[16] = dose: 200.0 mg/kg/injection, schedule: Q01DX001 (ip), vehicle: Klucel (hydroxypropylcellulose) (HPC)
[17] = dose: 400.0 mg/kg/injection, schedule: Q01DX001 (ip), vehicle: Klucel (hydroxypropylcellulose) (HPC)
[18] = dose: 100.0 mg/kg/injection, schedule: Q01DX001 (ip), vehicle: saline
[19] = dose: 200.0 mg/kg/injection, schedule: Q01DX001 (ip), vehicle: saline
[20] = dose: 100.0 mg/kg/injection, schedule: Q04DX002 (ip), vehicle: Klucel (hydroxypropylcellulose) (HPC)
[21] = dose: 200.0 mg/kg/injection, schedule: Q04DX002 (ip), vehicle: Klucel (hydroxypropylcellulose) (HPC)
[22] = dose: 400.0 mg/kg/injection, schedule: Q04DX002 (ip), vehicle: Klucel (hydroxypropylcellulose) (HPC)
[23] = dose: 400.0 mg/kg/injection, schedule: Q01DX001 (ip), vehicle: saline

Measured: T/C

CCCCC1CCC2=C(CC(O)(CCCC)CC3=C1C(=O)OC3=O)C(=O)OC2=O (configuration not stated)
inactive: [1] 106 % of control | [2] 95 % of control

CCCN(CCC)C(=O)CCN1CC1
inactive: dose: 5.0 mg/kg/injection, schedule: Q01DX001 (ip), vehicle: carboxymethylcellulose (CMC) 97 % of control | dose: 10.0 mg/kg/injection, schedule: Q01DX001 (ip), vehicle: carboxymethylcellulose (CMC) 100 % of control | dose: 20.0 mg/kg/injection, schedule: Q01DX001 (ip), vehicle: carboxymethylcellulose (CMC) 88 % of control | dose: 40.0 mg/kg/injection, schedule: Q01DX001 (ip), vehicle: carboxymethylcellulose (CMC) 103 % of control

O=C(CC(O)(C(F)(F)F)C(F)(F)F)c1ccc(-c2ccccc2)cc1
inactive: [3] 96 % of control | dose: 50.0 mg/kg/injection, schedule: Q04DX003 (ip), vehicle: saline with Tween-80 101 % of control | [4] 98 % of control | [5] 104 % of control | [6] 100 % of control | [7] 97 % of control | [8] 101 % of control | dose: 400.0 mg/kg/injection, schedule: Q04DX003 (ip), vehicle: saline with Tween-80 93 % of control

CCN(CC)C(=O)c1ccc(COc2cc(Cl)cc(Cl)c2)cc1
inactive: [9] 94 % of control | [10] 97 % of control | [11] 96 % of control

CNC/C(C)=C/Br
inactive: [12] 101 % of control | [5] 103 % of control | [13] 92 % of control | [7] 97 % of control

O=C1c2ccccc2C(=O)c2cc3nc4c5ccccc5c5ccccc5c4nc3cc21
inactive: [4] 93 % of control | [1] 103 % of control | [6] 90 % of control | [2] 97 % of control | [8] 97 % of control | [14] 100 % of control

CC(C)CCOc1ccc(C(N)=S)c2ccccc12
inactive: [15] 112 % of control | [16] 112 % of control | [17] 102 % of control

O=[N+]([O-])c1cc(Cl)c(Cl)c([N+](=O)[O-])c1O
inactive: dose: 25.0 mg/kg/injection, schedule: Q01DX009 (ip), vehicle: acetone 92 % of control | dose: 50.0 mg/kg/injection, schedule: Q01DX009 (ip), vehicle: acetone 97 % of control | dose: 50.0 mg/kg/injection, schedule: Q04DX003 (ip), vehicle: acetone 95 % of control | [18] 95 % of control | dose: 100.0 mg/kg/injection, schedule: Q01DX009 (ip), vehicle: acetone 95 % of control | [12] 89 % of control | dose: 150.0 mg/kg/injection, schedule: Q01DX009 (ip), vehicle: acetone 100 % of control | [19] 93 % of control

CCCCS(=O)(=O)C1C2CCC(O2)C1S(=O)(=O)CCCC (configuration not stated)
inactive: [20] 92 % of control | [21] 105 % of control | [22] 101 % of control

CSCCc1ccccn1
inactive: dose: 50.0 mg/kg/injection, schedule: Q01DX001 (ip), vehicle: saline 98 % of control | [18] 104 % of control | [19] 98 % of control | [23] 110 % of control

CN(C)/N=C1\C(=O)Nc2ccccc21
inactive: dose: 25.0 mg/kg/injection, schedule: Q01DX009 (ip), vehicle: Klucel (hydroxypropylcellulose) (HPC) 101 % of control | dose: 50.0 mg/kg/injection, schedule: Q01DX009 (ip), vehicle: Klucel (hydroxypropylcellulose) (HPC) 117 % of control | dose: 50.0 mg/kg/injection, schedule: Q04DX003 (ip), vehicle: Klucel (hydroxypropylcellulose) (HPC) 104 % of control | [9] 102 % of control and 103 % of control | dose: 100.0 mg/kg/injection, schedule: Q04DX003 (ip), vehicle: Klucel (hydroxypropylcellulose) (HPC) 106 % of control | dose: 200.0 mg/kg/injection, schedule: Q04DX003 (ip), vehicle: Klucel (hydroxypropylcellulose) (HPC) 97 % of control | dose: 400.0 mg/kg/injection, schedule: Q04DX003 (ip), vehicle: Klucel (hydroxypropylcellulose) (HPC) 103 % of control

CC1(C)COc2cc([N+](=O)[O-])cc(N)c2N1
inactive: dose: 75.0 mg/kg/injection, schedule: Q01DX001 (ip), vehicle: saline 107 % of control | dose: 75.0 mg/kg/injection, schedule: Q04DX003 (ip), vehicle: acetone 110 % of control | dose: 150.0 mg/kg/injection, schedule: Q01DX001 (ip), vehicle: saline 100 % of control | dose: 150.0 mg/kg/injection, schedule: Q04DX003 (ip), vehicle: acetone 95 % of control | dose: 300.0 mg/kg/injection, schedule: Q01DX001 (ip), vehicle: saline 96 % of control | dose: 300.0 mg/kg/injection, schedule: Q04DX003 (ip), vehicle: acetone 101 % of control

NCC1CC2CCC1CC2 (configuration not stated)
inactive: dose: 12.5 mg/kg/injection, schedule: Q01DX009 (ip), vehicle: alcohol 106 % of control | dose: 25.0 mg/kg/injection, schedule: Q01DX009 (ip), vehicle: alcohol 101 % of control | dose: 50.0 mg/kg/injection, schedule: Q01DX009 (ip), vehicle: alcohol 106 % of control

CCCCc1cn(S(=O)(=O)c2ccc(C)cc2)nn1
inactive: [1] 106 % of control | [2] 100 % of control | [14] 106 % of control

CCN(CC)S(=O)(=O)NC1C(=O)N(c2ccccc2)N(C)C1C (configuration not stated)
inactive: [1] 104 % of control | [2] 101 % of control | [14] 104 % of control

CCC(=O)N(N=O)c1ccccc1
inactive: dose: 18.8 mg/kg/injection, schedule: Q01DX001 (ip), vehicle: saline 91 % of control

Cc1cccc(Cl)c1NC(=O)c1c(Cl)c(Cl)c(Cl)c(Cl)c1C(=O)O
inactive: [20] 110 % of control | [21] 104 % of control

O=C(/C=C1\C(=O)Nc2ccccc21)/C=C1/C(=O)Nc2ccccc21
inactive: [9] 93 % of control

NC(=S)NNC(=S)S
inactive: [9] 98 % of control | [10] 98 % of control | [11] 109 % of control

O=C1c2ccccc2CCC12OC2c1ccccc1[N+](=O)[O-] (configuration not stated)
inactive: dose: 100.0 mg/kg/injection, schedule: Q01DX009 (ip), vehicle: saline 88 % of control | [12] 98 % of control | dose: 200.0 mg/kg/injection, schedule: Q01DX009 (ip), vehicle: saline 89 % of control | [13] 93 % of control | dose: 400.0 mg/kg/injection, schedule: Q01DX009 (ip), vehicle: saline 98 % of control | dose: 400.0 mg/kg/injection, schedule: Q04DX003 (ip), vehicle: acetone 109 % of control

Oc1ccc(N=Cc2c(O)ccc3ccccc23)cc1
inactive: dose: 200.0 mg/kg/injection, schedule: Q01DX001 (ip), vehicle: other 90 % of control | dose: 400.0 mg/kg/injection, schedule: Q01DX001 (ip), vehicle: other 91 % of control

CCC1(C)OC(=O)NC1=O (configuration not stated)
inactive: [3] 96 % of control | [4] 101 % of control | [6] 86 % of control

O=Cc1cccc(Oc2cccc(C=O)c2)c1
inactive: [15] 97 % of control | [16] 95 % of control | [17] 92 % of control

O=C1OC(c2ccccc2)(c2ccccn2)c2ccccc21 (configuration not stated)
inactive: [4] 90 % of control | [6] 92 % of control | [8] 88 % of control

c1cc2c(cc1CCc1ccc3c(c1)OCO3)OCO2
inactive: [20] 96 % of control | [21] 86 % of control | [22] 104 % of control

COc1ccc(-c2ccccc2)cc1C(=O)CCC(=O)O
inactive: [18] 100 % of control | [19] 96 % of control | [23] 96 % of control

Cn1cnc2cnc([N+](C)(C)C)nc21
inactive: dose: 100.0 mg/kg/injection, schedule: Q04DX003 (ip), vehicle: saline 103 % of control | dose: 200.0 mg/kg/injection, schedule: Q04DX003 (ip), vehicle: saline 114 % of control

O=C(O)C(CCC(C(=O)O)c1ccccc1)c1ccccc1 (configuration not stated)
inactive: dose: 75.0 mg/kg/injection, schedule: Q01DX001 (ip), vehicle: other 110 % of control | dose: 150.0 mg/kg/injection, schedule: Q01DX001 (ip), vehicle: other 116 % of control | dose: 300.0 mg/kg/injection, schedule: Q01DX001 (ip), vehicle: other 95 % of control
